Experimental data published in patent publication US20090304686A1, “INTERFERING IN ACTIVATION OF AN IMMUNE CELL BY INFLUENCING INTERACTION OF LAIR AND COLLAGEN” (UNIVERSOTAIR MEDISCH CENTRUM UTRECHT, priority 2006, published 2009).
“Also recorded” adds a separate entry of the source.

Columns and labels:
[1] = target: T1, hLAIR-1-CD3ζ chimera (Homo sapiens, UniProt Q6GTX8); assay: 2B4 NFAT-GFP reporter cell assay, hLAIR-1-CD3ζ chimera; type: cell-based; settings: for most potent hLAIR-1 activators in order of strength: order: III-30, II-56, II-30, III-38, II-42, III-51; for functional triggering of hLAIR-1-CD3ζ (GFP expression, in words): plate-bound ligand
T1 construct: a chimeric protein consisting of the extracellular domain of hLAIR-1 fused to the transmembrane and intracellular domain of CD3ζ; expressed in transfected cells; host or cells: Mouse 2B4 NFAT-GFP reporter T cell hybridoma, pMX puro retroviral vector
T1 sequence (Q6GTX8 22-165 limits assumed): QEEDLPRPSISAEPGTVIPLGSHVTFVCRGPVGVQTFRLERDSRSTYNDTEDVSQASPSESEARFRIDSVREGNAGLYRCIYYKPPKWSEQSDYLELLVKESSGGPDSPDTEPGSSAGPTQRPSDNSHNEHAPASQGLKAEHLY
Experimental: For detection of LAIR-1 ligands: 2B4 T cell hybridoma cells stably transduced with an NFAT-GFP reporter and hLAIR-1-CD3ζ were analyzed as described (11).
2B4 T cell hybridoma cells were stably transduced with an NFAT-GFP reporter construct(40) and hLAIR-1-CD3ζ(15) and analyzed as described(15, 40).

[2] = target: T2, hLAIR-1 (Homo sapiens, UniProt Q6GTX8); assay: Inhibition of CD3 signaling in hLAIR-1a transfected 2B4 NFAT-GFP reporter cells; type: cell-based; parameters: expressed in transfected cells; host or cells: Mouse 2B4 NFAT-GFP reporter T cell hybridoma; settings: for inhibitory capacity at low peptide concentration (in words): 1.1 μg/ml; for inhibition of CD3-induced activation of hLAIR-1 transfected reporter cells (in words): plate-bound peptide 10, 3.3, 1.1, 0.37 μg/ml; for inhibition of CD3-induced activation of hLAIR-1 transfected reporter cells: low peptide concentration 1.1 μg/ml
T2 sequence (Q6GTX8 22-287): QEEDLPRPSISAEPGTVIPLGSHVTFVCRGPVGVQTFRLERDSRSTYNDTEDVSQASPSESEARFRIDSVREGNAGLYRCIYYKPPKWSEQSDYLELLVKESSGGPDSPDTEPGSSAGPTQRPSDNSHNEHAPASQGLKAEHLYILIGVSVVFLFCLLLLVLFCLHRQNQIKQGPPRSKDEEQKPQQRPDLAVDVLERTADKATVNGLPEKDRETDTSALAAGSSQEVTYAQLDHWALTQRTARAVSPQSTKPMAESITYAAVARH
Experimental: For detection of inhibition of mouse CD3 signaling: 2B4 T cell hybridoma cells stably transduced with an NFAT-GFP reporter and hLAIR-1a were generated. 1.25 μg/ml anti-mouse CD3 (PharMingen, San Diego, Calif.) was coated overnight at 4° C. in 96-well MAXIsorp flat-bottom plates (Nunc) together with an indicated amount of synthetic trimeric peptides in a total volume of 100 μl/well. The next day, plates were washed and 200 μl of 2.5×10^5 reporter cells/ml in medium were added to each well, and plates were incubated at 37° C. for 22 hrs and then analyzed for GFP expression by flow cytometry on a FACSCalibur (BD Biosciences). Typically, ˜90 percent of the reporters expressed GFP upon CD3 stimulation.

[3] = test system: parental 2B4 NFAT-GFP reporter T cell hybridoma cells; assay: Inhibition of CD3 signaling in parental (untransfected) 2B4 NFAT-GFP reporter cells; type: cell-based, Mouse; settings: for inhibition of CD3-induced activation of parental reporter cells: high peptide concentrations
[4] = target: T2, hLAIR-1; assay: FcεRI-induced degranulation assay, hLAIR-1 transfected RBL-2H3 cells; type: cell-based; parameters: expressed in transfected cells; settings: plate-bound together with TNP-BSA 0.8 μg/ml
Experimental: 96-well MAXIsorp flat-bottom plates (Nunc) were coated overnight at 4° C. with BSA, or TNP conjugated to BSA (0.8 μg/ml) and indicated amounts of synthetic trimeric peptides (100 μl/well, 2 mM acetic acid in PBS). Meanwhile, untransfected or hLAIR-1a transfected RBL-2H3 (23) cells were sensitized with IgE anti-TNP mAbs at 4° C. for 30 minutes and subsequently washed for three times in medium (AIM-V; Gibco-BRL). After washings of the plates, 5.0×10^5 cells in 70 μl medium were added to each well, and plates were incubated at 37° C. for 1 hour. Subsequently, cultures were transferred to PCR tubes, centrifuged and the supernatants were assayed for β-glucuronidase activity as described (23).

[5] = target: T3, hLAIR-1-IgG (Homo sapiens, UniProt Q6GTX8); assay: BIAcore binding of hLAIR-1-IgG to immobilized triple-helical peptides; settings: hLAIR-1-IgG 780 nM, 5 μl/min, ~250 RU peptide
T3 construct: chimeric proteins of the extracellular domain of hLAIR-1 or LAIR-2 fused to the Fc region of human IgG1 were prepared; made in house
T3 sequence (Q6GTX8 22-165 limits assumed): T1 sequence (Q6GTX8 22-165 limits assumed)
Experimental: (§1) Surface plasmon resonance (BIAcore) binding studies were performed using a BIAcore2000 system (BIAcore AB, Uppsala, Sweden). Approximately 2000-3000 response units (RU) of acid-soluble human collagen type I or III (Sigma) were immobilized on a CM5 biosensor chip using the amine coupling kit as instructed by the supplier. Immobilized triple-helical peptides composed of GCO(GPO)10GCOG-NH2 ((GPO)10, also known as collagen-related peptide, CRP^6) and GCP(GPP)10GCPG-NH2 ((GPP)10) were described previously^6. Approximately 250 RU (GPP)10 or (GPO)10 peptide trimers were immobilized using a cysteine coupling kit according manufacturers instructions. Analysis was performed in buffer (125 mM NaCl, 2.5 mM CaCl2, 0.005% (v/v) Tween 20, and 25 mM Hepes, (pH 7.4)) at 25° C. at a flow rate of 20 μl/min for collagen I and III interaction-studies and 5 μl/min for the immobilized peptides. […] Increasing concentrations of hLAIR-1-IgG were injected and allowed to reach an equilibrium plateau for 10 minutes. The delay between injections was 13 min, during which time the biosensor chip was flushed with buffer. In case of peptide-binding studies, biosensor chips were regenerated by injection of 0.1 M H3PO4 (2 min, 5 μl/min).

[6] = target: T4, LAIR-2 fusion protein (Homo sapiens, UniProt Q6ISS4); assay: BIAcore binding of LAIR-2 fusion protein to immobilized trimeric peptides; settings: 5 μl/min, ~250 RU peptide
T4 construct: chimeric proteins of the extracellular domain of hLAIR-1 or LAIR-2 fused to the Fc region of human IgG1 were prepared; made in house
T4 sequence (Q6ISS4 22-152): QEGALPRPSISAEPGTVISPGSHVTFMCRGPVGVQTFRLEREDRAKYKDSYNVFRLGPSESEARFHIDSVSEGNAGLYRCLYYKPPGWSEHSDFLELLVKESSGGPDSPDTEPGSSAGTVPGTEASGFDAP
Experimental: as §1
The surface plasmon resonance binding studies were performed as described before(15). LAIR-2-IgG dimer concentration was calculated based on a theoretical mass of 82.5 kDa.

Substance | most potent hLAIR-1 activators in order of strength [1] | inhibition of CD3-induced activation of hLAIR-1 transfected reporter cells (in words) [2] | inhibition of FcεRI-induced degranulation (β-glucuronidase release) [4] | other results
GPC(GPP)5-GRAGEOGLQGPAGPOGEKGEOGDDGPS-(GPP)5GPC-NH2 [II-42] | most potent hLAIR-1 activators | – | – | –
GPC(GPP)5-GAOGLRGGAGPOGPEGGKGAAGPOGPO-(GPP)5GPC-NH2 [III-30] | most potent hLAIR-1 activators | efficiently inhibiting | potent inhibitors | inhibitory capacity at low peptide concentration (in words) [2]: full inhibitory capacity; inhibition of CD3-induced activation of parental reporter cells [3]: ~30%
GPC(GPP)5-GPRGRSGETGPAGPOGNOGPOGPOGPO-(GPP)5GPC-NH2 [II-56] | most potent hLAIR-1 activators | efficiently inhibiting | potent inhibitors | inhibitory capacity at low peptide concentration (in words) [2]: full inhibitory capacity; also recorded: full inhibitory potential; inhibition of CD3-induced activation of parental reporter cells [3]: ~30%
GCP(GPP)10GCPG-NH2 [reference compound] | – | did not inhibit | not | inhibition of CD3-induced activation of parental reporter cells (in words) [3]: did not inhibit; binding of hLAIR-1-IgG to immobilized peptide [5]: did not; interaction of LAIR-2 with immobilized trimeric peptide [6]: not
GPC(GPP)5-GPAGPAGAOGPAGSRGAOGPQGPRGDK-(GPP)5GPC-NH2 [III-51] | most potent hLAIR-1 activators | – | – | functional triggering of hLAIR-1-CD3ζ (GFP expression, in words) [1]: potent LAIR-1 binders and activators
GPC(GPP)5-GPAGEOGREGSOGADGPOGRDGAAGVK-(GPP)5GPC-NH2 [II-47] | – | did not induce inhibition | – | –
GPC(GPP)5-GTOGTDGPKGASGPAGPOGAQGPOGLQ-(GPP)5GPC-NH2 [II-30] | most potent hLAIR-1 activators | efficiently inhibiting | – | inhibition of CD3-induced activation of hLAIR-1 transfected reporter cells [2]: ~60%
GPC(GPP)5-GEGGPOGVAGPOGGSGPAGPOGPQGVK-(GPP)5GPC-NH2 [III-38] | most potent hLAIR-1 activators | efficiently inhibiting | – | inhibition of CD3-induced activation of hLAIR-1 transfected reporter cells [2]: ~60%
GPC(GPP)5-GMOGERGGLGSOGPKGDKGEOGGOGAD-(GPP)5GPC-NH2 [III-32] | – | – | – | functional triggering of hLAIR-1-CD3ζ (GFP expression, in words) [1]: potent LAIR-1 binders and activators
